“Also recorded” adds a separate entry of the source.
Experiments:
[1] = Absorption (AUC) of cannabinoid and primary metabolite in blood after dosing; settings: after oropharyngeal (buccal) administration compared with sublingual
[2] = stated as known; cited from earlier work
CB1 (Brain receptors) = CB1 (Brain receptors) (Homo sapiens, UniProt P21554); settings: cited from earlier work
[3] = Stability on storage, assay as percentage of initial value; assay type: physicochemical; settings: for stability in the formulation (in words): conclusion from Table 5
From the text: The data are reported as percentage of initial assay value.

[4] = Solubility of cannabinoids
[5] = CBD given before THC, cognitive effects; assay type: in vivo; settings: CBD (or CBDV) administered before THC; not observed if THC is given before CBD
[6] = Table 3; Brown, 1998; cited from earlier work
[7] = Pain relief, THC alone vs extract of cannabis; assay type: in vivo; settings: THC alone vs same quantity of THC given as an extract of cannabis
[8] = Table 3 footnote; naïve patients may show postural hypotension, hypertension reported on prolonged usage; cited from earlier work
[9] = Table 3 footnote; cited from earlier work
[10] = Analgesic effect of THCV vs THC; assay type: in vivo; settings: compared with THC
[11] = Subject reports on THCV (mood enhancement, hangover); assay type: in vivo; settings: compared with THC

Sequence of CB1 (Brain receptors) (P21554 whole entry, species assumed): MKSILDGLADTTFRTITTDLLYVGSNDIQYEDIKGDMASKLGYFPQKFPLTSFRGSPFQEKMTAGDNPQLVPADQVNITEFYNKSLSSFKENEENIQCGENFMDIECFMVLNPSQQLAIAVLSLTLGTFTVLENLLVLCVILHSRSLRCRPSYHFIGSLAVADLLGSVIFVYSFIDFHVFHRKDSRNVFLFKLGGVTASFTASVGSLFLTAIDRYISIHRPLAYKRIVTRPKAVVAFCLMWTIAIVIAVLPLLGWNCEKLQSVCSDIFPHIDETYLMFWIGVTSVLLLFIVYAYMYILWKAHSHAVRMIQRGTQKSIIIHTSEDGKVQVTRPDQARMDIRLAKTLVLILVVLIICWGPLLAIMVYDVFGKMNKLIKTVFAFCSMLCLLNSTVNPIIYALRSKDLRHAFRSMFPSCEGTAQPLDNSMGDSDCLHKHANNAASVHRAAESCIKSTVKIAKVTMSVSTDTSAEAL

CCCCCc1cc(O)c2c(c1)OC(C)(C)[C@@H]1CCC(CO)=C[C@@H]21 [11 OH THC]
reduction in the amount of 11 OH metabolite detected [1]: approximately 25% | psychoactivity relative to parent compound [2]: possibly more psychoactive than the parent compound

C=C(C)[C@@H]1CCC(C)=C[C@H]1c1c(O)cc(CCCCC)cc1O [CBD, cannabidiol]
CB1 (Brain receptors) (CB1 (Brain receptors)): ∀ | stability in the formulation (in words) [3]: good stability | effect as pharmaceutical stabilizer ([3]; observation of the applicants): able to act as a pharmaceutical stabilizer of pharmaceutical formulations and thus prolong shelf-life | solubility in aqueous excipients [4]: very low solubility | psychoactive effects of THC [5]: diminished | subsequent sedation [5]: postponed and mitigated | Anti-inflammatory [6]: ∀

C=C(C)[C@@H]1CCC(C)=C[C@H]1c1c(O)cc(CCC)cc1O [CBDV, cannabidivarin]
psychoactive effects of THC [5]: diminished | subsequent sedation [5]: postponed and mitigated

CCCCCc1cc(O)c2c(c1)OC(C)(C)[C@@H]1CCC(C)=C[C@@H]21 [THC, Δ^9-tetrahydrocannabinol]
degree of pain relief [7]: lower degree of pain relief than the same quantity of THC given as an extract of cannabis | effect on blood pressure (footnote ′) [8]: ′ THC has a biphasic effect on blood pressure; in naïve patients it may produce postural hypotension and it has also been reported to produce hypertension on prolonged usage. GW Internal Report No 002/000159. | stability in the formulation (in words) [3]: less stable | solubility in aqueous excipients [4]: very low solubility | amount of THC that could be stabilised ([4]; aerosol sprays containing ethanol plus a propellant): 0.7 mg of THC per 0.1 ml of liquid formulation | Anti-inflammatory [6]: ∀ | convulsant effect (footnote H to Anticonvulsant) [9]: H THC is pro convulsant

CCCc1cc(O)c2c(c1)OC(C)(C)[C@@H]1CCC(C)=C[C@@H]21 [THCV, tetrahydrocannabinovarin]
analgesic effect, speed [10]: more rapid analgesic effect than THC | hangover [11]: less severe hangover; also recorded: reduced potential for hangover | mood enhancement ([11]; reported by subjects taking THCV): less disturbing than that produced by THC

Reference: patent publication US7025992B2, “Pharmaceutical formulations” (priority 2001, dated 2006)
